According to patent US12582661B2, “Synthesis and application of class of respiratory syncytial virus inhibitors” (SHANGHAI ARK BIOPHARMACEUTICAL CO., LTD., priority 2020, dated 2026):
Like-named read-outs stand apart in the source and are kept apart here.

How the values were obtained:
[1] = test system: respiratory syncytial virus; conditions: cited from earlier work
RSV Long strain = assay: Virus cytopathic effect (CPE) assay, anti-RSV activity in HEp-2 cells; format: cell-based; conditions: human respiratory syncytial virus, 96 h, RSV Long strain 0.5 MOI, CellTiter-Glo after 4 days
Procedure: HEp-2 cells (ATCC CCL-23, human laryngeal carcinoma epithelial cells) were purchased from American Type Culture Collection and the culture conditions were as follows: 1% double antibody was added to Dulbecco modified Eagle medium (DMEM) medium containing 10% fetal bovine serum (FBS), and maintained in a 5% CO2 incubator and cultured at 37° C. To evaluate the anti-RSV activity of compounds, cells were seeded in a 96-well plate at a density of 5×10^3 cells/well in Hyclone™ (DMEM) containing 10% fetal bovine serum (FBS). The following day, cells were infected with a 0.5 MOI of RSV Long strain (ATCC) in the presence of 3-fold serial dilutions of compound to a total volume of 100 μL per well. The cell viability was evaluated by the cell counting kit CellTiter-Glo Reagent after 4 days. The fluorescence signal was read on a multi-mode microplate reader and the 50% effective concentration EC50 was determined by the fluorescence value. The RSV inhibition activities of the compounds involved in Examples 1 to 15 disclosed herein were evaluated according to the above method, and the results are shown in Table 3 below.

[2] = Pharmacokinetics in ICR mice, plasma drug concentrations; format: in vivo; conditions: for AUC(0-inf) / Cmax / Tmax / clearance / half-life / AUC(0-t) / Vd: ICR, mouse plasma; for AUC(0-t): read-out: AUC0-12; for Vd: read-out: Vss; for concentration at 0.083 h / concentration at 0.25 h / concentration at 0.5 h / concentration at 1 h / concentration at 2 h / concentration at 4 h / concentration at 8 h / concentration at 24 h / concentration at 12 h: mouse, plasma; for concentration at 0.083 h / concentration at 0.25 h / concentration at 0.5 h / concentration at 1 h / concentration at 2 h / concentration at 4 h / concentration at 8 h / concentration at 24 h / F / concentration at 12 h: ICR mice; for F: p.o. 10 mg/kg vs i.v. 2 mg/kg
Procedure: The pharmacokinetics were further tested of Example 4 and Example 7 disclosed herein and Example 61-1 (Comparative Example 1) in patent WO2013020993 in ICR mice. A single intravenous injection (dose of 2 mg/kg) and a single oral administration (dose of 10 mg/kg) were taken respectively. Blood collection point: before administration, 5 min, 15 min, 30 min, 1 h, 2 h, 4 h, 8 h, 12 h, 24 h after administration. The same method was applied to the pharmacokinetics of the above Comparative Example 1 in ICR mice, with a single intravenous injection (dose of 2 mg/kg) and a single oral administration (dose of 10 mg/kg) respectively.

RSV = conditions: oral; cited from earlier work

For CC(C)C(=O)OC[C@@]1(CCl)O[C@@H](n2ccc(N)nc2=O)[C@H](F)[C@@H]1OC(=O)C(C)C [ALS-8176], the “volunteers with reduced respiratory syncytial virus load” value [1] is listed as “more than 85%”.
In the case of Cc1ccc2nc(N3CCS(=O)(=O)c4ccccc4C3)nc(N3CC(N)C3)c2c1 [Example 1, 4-(4-(3-Aminoazetidin-1-yl)-6-methylquinazolin-2-yl)-2,3,4,5-tetrahydrobenzo[f][1,4]thiazepine 1,1-dioxide], the IC50 (RSV Long strain) is reported as 4.4 nM.
Molecule Cc1ccc2nc(N3CCS(=O)(=O)c4ccccc4C3)nc(NCC3CNC3)c2c1 [Example 2, 4-(4-((Azetidin-3-ylmethyl)amino)-6-methylquinazolin-2-yl)-2,3,4,5-tetrahydrobenzo[f][1,4]thiazepine 1,1-dioxide] has an IC50 (RSV Long strain) of 6.3 nM.
Cc1ccc2nc(N3CCS(=O)(=O)c4ccccc4C3)nc(N3CC(CN)(CO)C3)c2c1 [Example 3, 4-(4-(3-(Aminomethyl)-3-(hydroxymethyl)azetidin-1-yl)-6-methylquinazolin-2-yl)-2,3,4,5-tetrahydrobenzo[f][1,4]thiazepine 1,1-dioxide] showed an IC50 (RSV Long strain) of 5 nM.
With NC1CN(c2nc(N3CCS(=O)(=O)c4ccccc4C3)nc3ccc(C(F)F)cc23)C1 [Example 4, 4-(4-(3-Aminoazetidin-1-yl)-6-(difluoromethyl)quinazolin-2-yl)-2,3,4,5-tetrahydrobenzo[f][1,4]thiazepine 1,1-dioxide] the IC50 (RSV Long strain) was 7 nM, the AUC(0-inf) ([2]; iv, i.v. 2 mg/kg) was 1010 ng·h/mL and the Cmax ([2]; iv, i.v. 2 mg/kg) was 82.4 ng/mL. It also gave a Tmax ([2]; iv, i.v. 2 mg/kg) of 4 h, a clearance ([2]; iv, i.v. 2 mg/kg) of 32.8 mL/min/kg and a half-life ([2]; iv, i.v. 2 mg/kg) of 3.4 h. For the same molecule, the AUC(0-t) ([2]; iv, i.v. 2 mg/kg) was 1010 ng·h/mL, the Vd ([2]; iv, i.v. 2 mg/kg) was 13.1 L/kg and the AUC(0-inf) ([2]; po, p.o. 10 mg/kg) was 3780 ng·h/mL. It also gave a Cmax ([2]; po, p.o. 10 mg/kg) of 505 ng/mL, a Tmax ([2]; po, p.o. 10 mg/kg) of 2 h and a half-life ([2]; po, p.o. 10 mg/kg) of 3.3 h. The AUC(0-t) ([2]; po, p.o. 10 mg/kg) was 3760 ng·h/mL, the concentration at 0.083 h ([2]; iv, i.v. 2 mg/kg) was 38 ng/mL and the concentration at 0.25 h ([2]; iv, i.v. 2 mg/kg) was 38.4 ng/mL. It also gave a concentration at 0.5 h ([2]; iv, i.v. 2 mg/kg) of 30.7 ng/mL, a concentration at 1 h ([2]; iv, i.v. 2 mg/kg) of 34.5 ng/mL and a concentration at 2 h ([2]; iv, i.v. 2 mg/kg) of 43.9 ng/mL. It also gave a concentration at 4 h ([2]; iv, i.v. 2 mg/kg) of 82.4 ng/mL, a concentration at 8 h ([2]; iv, i.v. 2 mg/kg) of 62.8 ng/mL and a concentration at 24 h ([2]; iv, i.v. 2 mg/kg) of 1.7 ng/mL. It also gave a concentration at 0.083 h ([2]; po, p.o. 10 mg/kg) of 49.7 ng/mL, a concentration at 0.25 h ([2]; po, p.o. 10 mg/kg) of 274 ng/mL and a concentration at 0.5 h ([2]; po, p.o. 10 mg/kg) of 407 ng/mL. It also gave a concentration at 1 h ([2]; po, p.o. 10 mg/kg) of 432 ng/mL, a concentration at 2 h ([2]; po, p.o. 10 mg/kg) of 505 ng/mL and a concentration at 4 h ([2]; po, p.o. 10 mg/kg) of 380 ng/mL. It also gave a concentration at 8 h ([2]; po, p.o. 10 mg/kg) of 128 ng/mL, a concentration at 24 h ([2]; po, p.o. 10 mg/kg) of 5.4 ng/mL and an F [2] of 74.6%.
NCC1(CO)CN(c2nc(N3CCS(=O)(=O)c4ccccc4C3)nc3ccc(C(F)F)cc23)C1 [Example 5, 4-(4-(3-(Aminomethyl)-3-(hydroxymethyl)azetidin-1-yl)-6-(difluoromethyl)quinazolin-2-yl)-2,3,4,5-tetrahydrobenzo[f][1,4]thiazepine 1,1-dioxide] showed an IC50 (RSV Long strain) of 7.9 nM.
With O=S1(=O)CCN(c2nc(NC3CNC3)c3cc(C(F)F)ccc3n2)Cc2ccccc21 [Example 6, 4-(4-(Azetidin-3-ylamino)-6-(difluoromethyl)quinazolin-2-yl)-2,3,4,5-tetrahydrobenzo[f][1,4]thiazepine 1,1-dioxide] the IC50 (RSV Long strain) was 4.9 nM.
NC1(CNc2nc(N3CCS(=O)(=O)c4ccccc4C3)nc3ccc(C(F)F)cc23)COC1 [Example 7, 4-(4-(((3-Aminooxetan-3-yl)methyl)amino)-6-(difluoromethyl)quinazolin-2-yl)-2,3,4,5-tetrahydrobenzo[f][1,4]thiazepine 1,1-dioxide] showed an IC50 (RSV Long strain) of 4.1 nM, an AUC(0-inf) ([2]; iv, i.v. 2 mg/kg) of 579 ng·h/mL and a Cmax ([2]; iv, i.v. 2 mg/kg) of 815 ng/mL. It also gave a Tmax ([2]; iv, i.v. 2 mg/kg) of 0.08 h, a clearance ([2]; iv, i.v. 2 mg/kg) of 57.6 mL/min/kg and a half-life ([2]; iv, i.v. 2 mg/kg) of 1.6 h. For the same molecule, the AUC(0-t) ([2]; iv, i.v. 2 mg/kg) was 573 ng·h/mL, the Vd ([2]; iv, i.v. 2 mg/kg) was 3.33 L/kg and the AUC(0-inf) ([2]; po, p.o. 10 mg/kg) was 481 ng·h/mL. It also gave a Cmax ([2]; po, p.o. 10 mg/kg) of 287 ng/mL, a Tmax ([2]; po, p.o. 10 mg/kg) of 0.5 h and a half-life ([2]; po, p.o. 10 mg/kg) of 1.3 h. It also gave an AUC(0-t) ([2]; po, p.o. 10 mg/kg) of 476 ng·h/mL, a concentration at 0.083 h ([2]; iv, i.v. 2 mg/kg) of 815 ng/mL and a concentration at 0.25 h ([2]; iv, i.v. 2 mg/kg) of 540 ng/mL. It also gave a concentration at 0.5 h ([2]; iv, i.v. 2 mg/kg) of 335 ng/mL, a concentration at 1 h ([2]; iv, i.v. 2 mg/kg) of 128 ng/mL and a concentration at 2 h ([2]; iv, i.v. 2 mg/kg) of 35 ng/mL. The concentration at 4 h ([2]; iv, i.v. 2 mg/kg) was 12.3 ng/mL, the concentration at 8 h ([2]; iv, i.v. 2 mg/kg) was 2.7 ng/mL and the concentration at 12 h ([2]; iv, i.v. 2 mg/kg) was 1.3 ng/mL. It also gave a concentration at 24 h ([2]; iv, i.v. 2 mg/kg) of 1.5 ng/mL, a concentration at 0.083 h ([2]; po, p.o. 10 mg/kg) of 233 ng/mL and a concentration at 0.25 h ([2]; po, p.o. 10 mg/kg) of 262 ng/mL. The concentration at 0.5 h ([2]; po, p.o. 10 mg/kg) was 287 ng/mL, the concentration at 1 h ([2]; po, p.o. 10 mg/kg) was 180 ng/mL and the concentration at 2 h ([2]; po, p.o. 10 mg/kg) was 50.1 ng/mL. The concentration at 4 h ([2]; po, p.o. 10 mg/kg) was 16.7 ng/mL, the concentration at 8 h ([2]; po, p.o. 10 mg/kg) was 4.6 ng/mL and the concentration at 12 h ([2]; po, p.o. 10 mg/kg) was 2.9 ng/mL. For the same molecule, the concentration at 24 h ([2]; po, p.o. 10 mg/kg) was 1.4 ng/mL and the F [2] was 16.62%.
Cc1ccc2nc(N3CCS(=O)(=O)c4ccccc4C3)nc(NCC3(O)CNC3)c2c1 [Example 8, 4-(4-(((3-Hydroxyazetidin-3-yl)methyl)amino)-6-methylquinazolin-2-yl)-2,3,4,5-tetrahydrobenzo[f][1,4]thiazepine 1,1-dioxide] showed an IC50 (RSV Long strain) of 2.9 nM.
Work on Cc1ccc2nc(N3CCS(=O)(=O)c4ccccc4C3)nc(N3CCC(O)(CN)C3)c2c1 (centres unmarked) [Example 9, 4-(4-(3-(Aminomethyl)-3-hydroxypyrrolidin-1-yl)-6-methylquinazolin-2-yl)-2,3,4,5-tetrahydrobenzo[f][1,4]thiazepine 1,1-dioxide] yielded an IC50 (RSV Long strain) of 0.9 nM.
In the case of Cc1ccc2nc(N3CCS(=O)(=O)c4ccccc4C3)nc(N3CC(O)(CN)C3)c2c1 [Example 10, 4-(4-(3-(Aminomethyl)-3-hydroxyazetidin-1-yl)-6-methylquinazolin-2-yl)-2,3,4,5-tetrahydrobenzo[f][1,4]thiazepine 1,1-dioxide], the IC50 (RSV Long strain) is reported as 3.3 nM.
For Cc1ccc2nc(N3CCS(=O)(=O)c4ccccc4C3)nc(N3CC(CN)C3)c2c1 [Example 11, 4-(4-(3-(Aminomethyl)azetidin-1-yl)-6-methylquinazolin-2-yl)-2,3,4,5-tetrahydrobenzo[f][1,4]thiazepine 1,1-dioxide], the IC50 (RSV Long strain) was 1.2 nM.
For Cc1ccc2nc(N3CCS(=O)(=O)c4ccccc4C3)nc(NC3CC(N)C3)c2c1 (centres unmarked) [Example 12, 4-(4-((3-Aminocyclobutyl)amino)-6-methylquinazolin-2-yl)-2,3,4,5-tetrahydrobenzo[f][1,4]thiazepine 1,1-dioxide], the IC50 (RSV Long strain) was 1.7 nM.
Work on Cc1ccc2nc(N3CCS(=O)(=O)c4ccccc4C3)nc(N3CC(N)(CN)C3)c2c1 [Example 13, 4-(4-(3-Amino-3-(aminomethyl)azetidin-1-yl)-6-methylquinazolin-2-yl)-2,3,4,5-tetrahydrobenzo[f][1,4]thiazepine 1,1-dioxide] yielded an IC50 (RSV Long strain) of 9.6 nM.
Cc1ccc2nc(N3CCS(=O)(=O)c4ccccc4C3)nc(N[C@H]3CNC[C@@H]3O)c2c1 [Example 14, 4-(4-(((3S,4S)-4-hydroxypyrrolidin-3-yl)amino)-6-methylquinazolin-2-yl)-2,3,4,5-tetrahydrobenzo[f][1,4]thiazepine 1,1-dioxide] showed an IC50 (RSV Long strain) of 1.3 nM.
For Cc1ccc2nc(N3CCS(=O)(=O)c4ccccc4C3)nc(NC3CC4(CNC4)C3)c2c1 [Example 15, 4-(4-((2-azaspiro[3.3]heptan-6-yl)amino)-6-methylquinazolin-2-yl)-2,3,4,5-tetrahydrobenzo[f][1,4]thiazepine 1,1-dioxide], the IC50 (RSV Long strain) was 3.7 nM.
For Cc1cn2nc([C@@H]3CCCCN3C(=O)c3cc(Cl)ccc3NS(C)(=O)=O)cc2nc1N1CC[C@H](N)C1 [GS-5806], the “viral load, mucus quantity and symptom scores” value (RSV) is given as “decrease viral load, mucus quantity and symptom scores”.
